Common to all, as to experiment: AK assay 384-well format, Prestwick library screening
One experiment concerns E. faecium. The format is cell-based, Enterococcus faecium. The note with it: for fold induction at 50 µM: Enterococcus faecium, 3 h.
Experiment [1] concerns S. aureus strain USA300-0114. Format: cell-based, Staphylococcus aureus. To be noted: for fold induction at 50 µM: Staphylococcus aureus, USA300, 3 h.
For another experiment, the system named is K. pneumoniae. Format: cell-based, Klebsiella pneumoniae. The note with it: for fold induction at 50 µM: Klebsiella pneumoniae, 3 h.
Experiment [2] has as its system A. baumannii strain 98-37-09. Format: cell-based, Acinetobacter baumannii. The note with it: for fold induction at 50 µM: Acinetobacter baumannii, 983709, 3 h.
The next experiment deals with P. aeruginosa. The format is cell-based, Pseudomonas aeruginosa. The note with it: for fold induction at 50 µM: Pseudomonas aeruginosa, 3 h.
A further experiment concerns E. cloacae. Format: cell-based, Enterobacter cloacae. The note with it: for fold induction at 50 µM: Enterobacter cloacae, 3 h.
The subject of another experiment is E. coli. The format is cell-based, Escherichia coli. The note with it: for fold induction at 50 µM: Escherichia coli, 3 h.
[3] abbreviates: 50 μM final drug concentration, planktonic, […], read-out: AK-based Prestwick Library Screening Results, E. coli (fold increase in extracellular AK activity).
The mark [4] stands for this setting: 50 μM final drug concentration, 384-well format, cutoff for positive-scoring molecules 3-fold increase, read-out: AK-based Prestwick Library Screening Results, E. faecium (increase in extracellular AK activity).
The mark [5] stands for this setting: 50 μM final drug concentration, 384-well format, cutoff for positive-scoring molecules 3-fold increase, read-out: AK-based Prestwick Library Screening Results, S. aureus (increase in extracellular AK activity).
The mark [6] stands for this setting: 50 μM final drug concentration, 384-well format, cutoff for positive-scoring molecules 3-fold increase, read-out: AK-based Prestwick Library Screening Results, K. pneumoniae (increase in extracellular AK activity).
The mark [7] stands for this setting: 50 μM final drug concentration, 384-well format, cutoff for positive-scoring molecules 3-fold increase, read-out: AK-based Prestwick Library Screening Results, A. baumannii (increase in extracellular AK activity).
Setting [8] is: 50 μM final drug concentration, 384-well format, cutoff for positive-scoring molecules 3-fold increase, read-out: AK-based Prestwick Library Screening Results, P. aeruginosa (increase in extracellular AK activity).
The mark [9] stands for this setting: 50 μM final drug concentration, 384-well format, cutoff for positive-scoring molecules 3-fold increase, read-out: AK-based Prestwick Library Screening Results, E. cloacae (increase in extracellular AK activity).
[10] abbreviates: 50 μM final drug concentration, 384-well format, cutoff for positive-scoring molecules 3-fold increase, read-out: AK-based Prestwick Library Screening Results, E. coli (increase in extracellular AK activity).
[11] abbreviates: 50 μM final drug concentration, planktonic, cutoff for positive 3-fold increase, read-out: AK-based Prestwick Library Screening Results, E. faecium (fold increase in extracellular AK activity).
The mark [12] stands for this setting: 50 μM final drug concentration, planktonic, cutoff for positive 3-fold increase, read-out: AK-based Prestwick Library Screening Results, S. aureus (fold increase in extracellular AK activity).
Setting [13] is: 50 μM final drug concentration, planktonic, cutoff for positive 3-fold increase, read-out: AK-based Prestwick Library Screening Results, K. pneumoniae (fold increase in extracellular AK activity).
The mark [14] stands for this setting: 50 μM final drug concentration, planktonic, cutoff for positive 3-fold increase, read-out: AK-based Prestwick Library Screening Results, A. baumannii (fold increase in extracellular AK activity).
The mark [15] stands for this setting: 50 μM final drug concentration, planktonic, cutoff for positive 3-fold increase, read-out: AK-based Prestwick Library Screening Results, P. aeruginosa (fold increase in extracellular AK activity).
[16] abbreviates: 50 μM final drug concentration, planktonic, cutoff for positive 3-fold increase, read-out: AK-based Prestwick Library Screening Results, E. cloacae (fold increase in extracellular AK activity).
The mark [17] stands for this setting: 50 μM final drug concentration, planktonic, cutoff for positive 3-fold increase.

Structures can show the parent of a compound that is named as a salt. Where two headings read alike, the source gives them in different places.

In the case of `C[C@@H]1CC[C@@]2(NC1)O[C@H]1C[C@H]3[C@@H]4CC=C5C[C@@H](O)CC[C@]5(C)[C@H]4CC[C@]3(C)[C@H]1[C@@H]2C` [Solasodine], the fold induction at 50 µM in the experiment on E. faecium (50 μM final drug concentration, planktonic, […], read-out: AK-based Prestwick Library Screening Results, E. faecium (fold increase in extracellular AK activity)) turned out to be 0.9; in experiment [1] (50 μM final drug concentration, planktonic, […], read-out: AK-based Prestwick Library Screening Results, S. aureus (fold increase in extracellular AK activity)), 0.6; in the experiment with K. pneumoniae (50 μM final drug concentration, planktonic, […], read-out: AK-based Prestwick Library Screening Results, K. pneumoniae (fold increase in extracellular AK activity)) it was 0.7; in experiment [2] (50 μM final drug concentration, planktonic, […], read-out: AK-based Prestwick Library Screening Results, A. baumannii (fold increase in extracellular AK activity)), 0.7; with P. aeruginosa (50 μM final drug concentration, planktonic, […], read-out: AK-based Prestwick Library Screening Results, P. aeruginosa (fold increase in extracellular AK activity)), 1; in the experiment on E. cloacae (50 μM final drug concentration, planktonic, […], read-out: AK-based Prestwick Library Screening Results, E. cloacae (fold increase in extracellular AK activity)) it was 0.9. Besides, the fold induction at 50 µM with E. coli (setting [3]) came to 1.
In the case of `NC(N)=Nc1nc(CSCCC(N)=NS(N)(=O)=O)cs1` [Famotidine], the fold induction at 50 µM in the experiment on E. faecium (setting [4]) turned out to be 0.8; in experiment [1] (setting [5]), 0.5; in the experiment on K. pneumoniae (setting [6]) it was 0.8; in experiment [2] (setting [7]), 0.8; in the experiment on P. aeruginosa (setting [8]) it was 0.8; in the experiment on E. cloacae (setting [9]), 1. The fold induction at 50 µM with E. coli (setting [10]) amounted to 0.9.
Take `COc1ccc(C(=O)c2ccccc2)c(O)c1` [Oxybenzone]: the fold induction at 50 µM in the experiment with E. faecium (50 μM final drug concentration, planktonic, cutoff for positive-scoring molecules 3-fold increase, read-out: AK-based Prestwick Library Screening Results, E. faecium (fold increase in extracellular AK activity)) is 0.7; in experiment [1] (50 μM final drug concentration, planktonic, cutoff for positive-scoring molecules 3-fold increase, read-out: AK-based Prestwick Library Screening Results, S. aureus (fold increase in extracellular AK activity)) it was 0.4; in the experiment on K. pneumoniae (50 μM final drug concentration, planktonic, cutoff for positive-scoring molecules 3-fold increase, read-out: AK-based Prestwick Library Screening Results, K. pneumoniae (fold increase in extracellular AK activity)), 0.4; in experiment [2] (50 μM final drug concentration, planktonic, cutoff for positive-scoring molecules 3-fold increase, read-out: AK-based Prestwick Library Screening Results, A. baumannii (fold increase in extracellular AK activity)), 0.4; in the experiment with P. aeruginosa (50 μM final drug concentration, planktonic, cutoff for positive-scoring molecules 3-fold increase, read-out: AK-based Prestwick Library Screening Results, P. aeruginosa (fold increase in extracellular AK activity)) it was 0.5; with E. cloacae (50 μM final drug concentration, planktonic, cutoff for positive-scoring molecules 3-fold increase, read-out: AK-based Prestwick Library Screening Results, E. cloacae (fold increase in extracellular AK activity)) it was 0.6. In addition, the fold induction at 50 µM in the experiment with E. coli (50 μM final drug concentration, planktonic, cutoff for positive-scoring molecules 3-fold increase, read-out: AK-based Prestwick Library Screening Results, E. coli (fold increase in extracellular AK activity)) was 0.5.
In the case of `CS(=O)(=O)Nc1ccc([N+](=O)[O-])cc1Oc1ccccc1` [Nimesulide], the fold induction at 50 µM was determined as 0.8 in the experiment with E. faecium (read-out: AK-based Prestwick Library Screening Results, E. faecium (increase in extracellular AK activity)); 0.7 in experiment [1] (read-out: AK-based Prestwick Library Screening Results, S. aureus (increase in extracellular AK activity)); 0.7 in the experiment on K. pneumoniae (read-out: AK-based Prestwick Library Screening Results, K. pneumoniae (increase in extracellular AK activity)); 0.9 in experiment [2] (read-out: AK-based Prestwick Library Screening Results, A. baumannii (increase in extracellular AK activity)); 0.9 in the experiment with P. aeruginosa (read-out: AK-based Prestwick Library Screening Results, P. aeruginosa (increase in extracellular AK activity)); 1.4 in the experiment with E. cloacae (read-out: AK-based Prestwick Library Screening Results, E. cloacae (increase in extracellular AK activity)). Further, in the experiment with E. coli (read-out: AK-based Prestwick Library Screening Results, E. coli (increase in extracellular AK activity)), the fold induction at 50 µM is 0.9.
Regarding `COc1cc([C@@H]2c3cc4c(cc3[C@@H](O[C@@H]3O[C@@H]5CO[C@@H](C)O[C@H]5[C@H](O)[C@H]3O)[C@H]3COC(=O)[C@H]23)OCO4)cc(OC)c1O` [Etoposide], the fold induction at 50 µM with E. faecium (setting [11]) stood at 1.1; in experiment [1] (setting [12]) it was 1.4; in the experiment with K. pneumoniae (setting [13]), 1; in experiment [2] (setting [14]) it was 1.2; in the experiment on P. aeruginosa (setting [15]) it was 1; in the experiment with E. cloacae (setting [16]) it was 1.4. Also, in the experiment with E. coli (setting [3]), the fold induction at 50 µM amounted to 1.2.
`CC(C)(Oc1ccc(CCNC(=O)c2ccc(Cl)cc2)cc1)C(=O)O` [Bezafibrate]: the fold induction at 50 µM with E. faecium (setting [11]) came to 0.8; in experiment [1] (setting [12]), 1.1; with K. pneumoniae (setting [13]), 0.7; in experiment [2] (setting [14]), 0.8; with P. aeruginosa (setting [15]), 1; in the experiment with E. cloacae (setting [16]), 1.5. In addition, in the experiment on E. coli (50 μM final drug concentration, planktonic, cutoff for positive 3-fold increase, read-out: AK-based Prestwick Library Screening Results, E. coli (fold increase in extracellular AK activity)), the fold induction at 50 µM is 0.9.
Turning to `CCOC(=O)C1=C[C@]2(CC)CCCN3CCc4c(n1c1ccccc41)[C@@H]32` [Vinpocetine], the fold induction at 50 µM turned out to be 1 in the experiment on E. faecium (setting [4]); 0.8 in experiment [1] (setting [5]); 0.8 with K. pneumoniae (setting [6]); 0.9 in experiment [2] (setting [7]); 1 in the experiment with P. aeruginosa (setting [8]); 1 with E. cloacae (setting [9]). The fold induction at 50 µM in the experiment with E. coli (setting [10]) was found to be 0.9.
Regarding `c1ccc(CN(CC2=NCCN2)c2ccccc2)cc1` [Antazoline hydrochloride], the fold induction at 50 µM with E. faecium (setting [4]) came to 1; in experiment [1] (setting [5]), 0.8; with K. pneumoniae (setting [6]) it was 0.6; in experiment [2] (setting [7]), 0.8; in the experiment on P. aeruginosa (setting [8]) it was 0.7; with E. cloacae (setting [9]), 0.8. Besides, the fold induction at 50 µM with E. coli (setting [10]) was 0.7.
For the molecule `CC(C)c1cccc(C(C)C)c1O` [Propofol], the fold induction at 50 µM in the experiment with E. faecium (read-out: AK-based Prestwick Library Screening Results, E. faecium (fold increase in extracellular AK activity)) stood at 1; in experiment [1] (read-out: AK-based Prestwick Library Screening Results, S. aureus (fold increase in extracellular AK activity)) it was 1.2; in the experiment on K. pneumoniae (read-out: AK-based Prestwick Library Screening Results, K. pneumoniae (fold increase in extracellular AK activity)), 1.1; in experiment [2] (read-out: AK-based Prestwick Library Screening Results, A. baumannii (fold increase in extracellular AK activity)), 1; in the experiment on P. aeruginosa (read-out: AK-based Prestwick Library Screening Results, P. aeruginosa (fold increase in extracellular AK activity)), 1; in the experiment with E. cloacae (read-out: AK-based Prestwick Library Screening Results, E. cloacae (fold increase in extracellular AK activity)) it was 1.7. Moreover, the fold induction at 50 µM with E. coli (read-out: AK-based Prestwick Library Screening Results, E. coli (fold increase in extracellular AK activity)) turned out to be 1.3.
Take Ketanserin tartrate hydrate: in the experiment on E. faecium (setting [17]), the “AK-based Prestwick Library Screening Results, E. faecium (fold increase in extracellular AK activity)” value is on record as 1.0. In addition, the “AK-based Prestwick Library Screening Results, S. aureus (fold increase in extracellular AK activity)” value in experiment [1] (setting [17]) came to 1.0. The “AK-based Prestwick Library Screening Results, K. pneumoniae (fold increase in extracellular AK activity)” value with K. pneumoniae (setting [17]) is recorded as 1.0. In addition, the “AK-based Prestwick Library Screening Results, A. baumannii (fold increase in extracellular AK activity)” value in experiment [2] (setting [17]) came out at 1.2. In addition, the “AK-based Prestwick Library Screening Results, P. aeruginosa (fold increase in extracellular AK activity)” value in the experiment on P. aeruginosa (setting [17]) is reported as 1.0. In addition, the “AK-based Prestwick Library Screening Results, E. cloacae (fold increase in extracellular AK activity)” value in the experiment on E. cloacae (setting [17]) worked out at 1.4. In addition, the “AK-based Prestwick Library Screening Results, E. coli (fold increase in extracellular AK activity)” value with E. coli (setting [17]) is recorded as 1.3.

(Values after patent publication US10004701B2, “Methods and compositions for treating infection” (UNIVERSITY OF ROCHESTER, priority 2012, dated 2018).)
